These results are taken from article PMC12114169, “Synthesis, Characterisation, Biological Evaluation and In Silico Studies of Quinoline–1,2,3-Triazole–Anilines as Potential Antitubercular and Anti-HIV Agents” (Molecules, 2025).

Data set [1] is described as follows: MTT cytotoxicity evaluation. The settings on record: human, Cytotoxicity CC50 TZM-bl Cell Line, MTT assay.
For data set [2], the system named is HIV-1 subtype B (NL4.3 virus). Put plainly: Luciferase-based antiviral assay in TZM-bl cells. The note with it: for SI (CC50/IC50): selectivity index, TZM-bl CC50 / HIV-1 IC50.
The test system of data set [3] is Mtb. Details: method as in PMID 21489660. The settings on record: antitubercular activity; cited from earlier work.
The target in data set [4] is HIV reverse transcriptase. Details: method as in PMID 30370848. The settings on record: cited from earlier work.
For data set [5], the system named is Mtb H37Rv (ATCC 27294) strain. Briefly: Antimycobacterial micro broth dilution (resazurin) assay. It counts as cell-based, Mycobacterium tuberculosis. The note with it: 7 days, read-out: Anti-Mtb H37Rv MIC90.
The test system of data set [6] is TZM-bl cell line. Briefly: MTT cytotoxicity evaluation. The settings on record: read-out: Cytotoxicity CC50 TZM-bl Cell Line; MTT assay.
The mark [7] stands for this setting: Human immunodeficiency virus 1, TZM-bl, 48 h, read-out: Anti-HIV HIV-1 Subtype B IC50, NL4.3 virus in TZM-bl cells, 48 h, luciferase.
The mark [8] stands for this setting: Mycobacterium tuberculosis, 168 h.
Setting [9] is: read-out: Anti-HIV HIV-1 Subtype B IC50, NL4.3 virus in TZM-bl cells, 48 h, luciferase.

≈ marks a conversion by molar mass, not a printed value. Where “and” joins values, the source holds several entries; their conditions need not be identical. Equal values may be shown once. Read-outs that look alike come from different tables or passages of the source.

As to `Cc1cn([C@H]2C[C@H](N=[N+]=[N-])[C@@H](CO)O2)c(=O)[nH]c1=O` [AZT, azidothymidine, reference compound], in data set [1], it took 1120 µM to reach half-maximal cytotoxicity (CC50). The IC50 in data set [2] (setting [7]) was 0.0909 µM. Further, the “SI (CC50/IC50)” value in data set [2] is 12,349 and 12,349.59.
As for `COc1ccc2nccc(-n3cc(CNC(C)=O)nn3)c2c1` [Compound 1], in data set [3], the minimum inhibitory concentration (MIC) is given as 0.625 µg/mL (≈ 2.1 µM).
Regarding `COc1ccc(S(=O)(=O)NCc2cn(-c3ccnc4ccc(OC)cc34)nn2)cc1` [Compound 2], the minimum inhibitory concentration (MIC) in data set [3] is listed as 0.625 µg/mL (≈ 1.47 µM).
For the compound `COc1ccc2nccc(-n3cc(CN4CCN(C(C)=O)CC4)nn3)c2c1` [Compound 3], in data set [3], the minimal inhibitory concentration (MIC) is on record as 0.625 µg/mL (≈ 1.71 µM).
As to `O=C1O[C@](C#CC2CC2)(C(F)(F)F)c2ccccc2N1Cc1cn(-c2ccnc3cc(Cl)ccc23)nn1` [Compound 5], the IC50 in data set [4] was 0.8 µM.
Turning to `[N-]=[N+]=Nc1ccnc2cc(Cl)ccc12` [Compound 7, 4-azido-7-chloroquinoline], in data set [5] (setting [8]), the MIC90 is 19.1 µM (≈ 3.91 µg/mL).
On the same count and under the same terms, the value for `C#CCNc1ccccc1` [Compound 10a, N-2-propyl-1-yl-benzanamine] was 3810 µM (≈ 500 µg/mL).
Turning to `Clc1ccc2c(-n3cc(CNc4ccccc4)nn3)ccnc2c1` [Compound 11a], the 50% cytotoxic concentration (CC50) in data set [6] is 177 µM; in data set [1] it was above 100 µM. In addition, in data set [2] (setting [7]), the concentration for half-maximal inhibition (IC50) is 3.01 µM. The “SI (CC50/IC50)” value in data set [2] turned out to be 58.75. Moreover, the MIC90 in data set [5] (setting [8]) amounted to 187 µM (≈ 62.6 µg/mL).
In data set [1], `Clc1ccc2c(-n3cc(CNc4ccc(Br)cc4)nn3)ccnc2c1` [Compound 11b, [1-(7-Chloro-4-quinolinyl)-1H-1,2,3-triazole-4-methyl]-4-bromoaniline] had a 50% cytotoxic concentration (CC50) of 0.248 µM. For the same compound, the IC50 in data set [2] (setting [7]) was 124 µM. The “SI (CC50/IC50)” value in data set [2] was 1.994 × 10^−3. The MIC90 in data set [5] (setting [8]) is 1210 µM (≈ 502 µg/mL).
Taken in the same sequence, the figures for `Clc1ccc2c(-n3cc(CNc4ccc(I)cc4)nn3)ccnc2c1` [Compound 11c, [1-(7-Chloro-4-quinolinyl)-1H-1,2,3-triazole-4-methyl]-4-iodoaniline] were 157 µM, 23.2 µM, 6.76 and 1080 µM (≈ 501 µg/mL).
For `Fc1ccc(NCc2cn(-c3ccnc4cc(Cl)ccc34)nn2)cc1` [Compound 11d, [1-(7-Chloro-4-quinolinyl)-1H-1,2,3-triazole-4-methyl]-4-flouroaniline], the 50% cytotoxic concentration (CC50) in data set [1] turned out to be 1320 µM. The “Anti-HIV HIV-1 Subtype B IC50” value in data set [2] (NL4.3 virus in TZM-bl cells, 48 h, luciferase) is recorded as “DNC *”. Further, the MIC90 in data set [5] (setting [8]) is 177 µM (≈ 62.5 µg/mL).
As for `Clc1cccc(NCc2cn(-c3ccnc4cc(Cl)ccc34)nn2)c1` [Compound 11e, [1-(7-Chloro-4-quinolinyl)-1H-1,2,3-triazole-4-methyl]-3-chloroaniline], in data set [1], the CC50 worked out at 835 µM. The IC50 in data set [2] (setting [7]) turned out to be 714 µM. Moreover, in data set [2], the “SI (CC50/IC50)” value is 1.17. Moreover, the MIC90 in data set [5] (setting [8]) is 169 µM (≈ 62.5 µg/mL).
On to `FC(F)(F)c1ccccc1NCc1cn(-c2ccnc3cc(Cl)ccc23)nn1` [Compound 11g, [1-(7-Chloro-4-quinolinyl)-1H-1,2,3-triazole-4-methyl]-2-triflouromethylaniline], for which the IC50 in data set [2] (setting [7]) and in data set [2] (setting [9]) was 0.388 µM each time. In data set [2], the “SI (CC50/IC50)” value is given as 11,367.49. Moreover, the MIC90 in data set [5] (setting [8]) was found to be 155 µM (≈ 62.6 µg/mL).
With `Fc1cccc(NCc2cn(-c3ccnc4cc(Cl)ccc34)nn2)c1` [Compound 11h, [1-(7-Chloro-4-quinolinyl)-1H-1,2,3-triazole-4-methyl]-3-flouroaniline], half-maximal cytotoxicity in data set [1] (CC50) was put at 25.5 µM. Besides, the concentration for half-maximal inhibition (IC50) in data set [2] (setting [7]) and in data set [2] (setting [9]) was 0.0103 µM in each case. Besides, in data set [2], the “SI (CC50/IC50)” value is 2472.87. Moreover, the MIC90 was found to be 88.72 µM (≈ 31.4 µg/mL) in data set [5] and 88 µM (≈ 31.1 µg/mL) in data set [5] (setting [8]).
With `O=[N+]([O-])c1cccc(NCc2cn(-c3ccnc4cc(Cl)ccc34)nn2)c1` [Compound 11i, [1-(7-Chloro-4-quinolinyl)-1H-1,2,3-triazole-4-methyl]-3-nitroaniline], the CC50 in data set [1] was 0.00901 µM. The IC50 in data set [2] (setting [7]) was found to be 0.17 µM; in data set [2] (setting [9]), 0.167 µM. The “SI (CC50/IC50)” value in data set [2] is given as 0.05.
In the case of `COc1ccc(NCc2cn(-c3ccnc4cc(Cl)ccc34)nn2)cc1` [Compound 11j, [1-(7-Chloro-4-quinolinyl)-1H-1,2,3-triazole-4-methyl]-4-methoxyaniline], it took 4 µM to reach half-maximal cytotoxicity in data set [1] (CC50). The IC50 in data set [2] (setting [7]) came to 180 µM. Further, the “SI (CC50/IC50)” value in data set [2] amounted to 0.02. Also, the MIC90 in data set [5] (setting [8]) is 1370 µM (≈ 501 µg/mL).
For `CC[C@@H](CO)NCCN[C@@H](CC)CO` [Ethambutol, reference compound], the MIC90 in data set [5] (setting [8]) is 9.68 µM (≈ 1.98 µg/mL).
